Experiment [1] relates to MCF-7. In words: Cytotoxicity assay (SRB), MCF-7. The note with it: Homo sapiens, MCF7, 72 h, MCF-7 cells, SRB, read-out: In Vitro Cellular Activity IC50 MCF-7. It counts as cell-based. Put shortly:
(§1)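 Cells were seeded overnight in RPMI 1640 with 5% FBS at 37 °C, 7% CO2 (12000/well BT474, 4000 HCT-116, 6000 LoVo, 6000 MCF-7), then exposed to compound dilutions for 3 days (6 days for BT474). Survival versus untreated controls was measured by TCA fixation and SRB staining at 540 nm.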

Experiment [2] has as its target T1, cyclin B/CDK1 enzyme (Homo sapiens, UniProt P06493).
T1 construct: purchased New England BioLabs; host or cells: Sf9 insect cells, recombinant baculovirus
The experiment can be described thus: CDK1 ELISA kinase assay (phospho-Rb ser 795 detection). It counts as biochemical. Put shortly:
(§2)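 Wells were coated overnight with GST-Rb C-terminal fragment, then blocked. Compound (10 ug/ml final) and cyclin/CDK enzyme from baculovirus-infected Sf9 cells with 200 μM ATP reacted 1 h at 30° C. Ser795 phosphorylation was detected by ELISA at 450 nm.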

In experiment [3] the test system is LoVo. In words: Cytotoxicity assay (SRB), LoVo. It counts as cell-based. The note with it: Homo sapiens, LoVo, 72 h, LoVo cells, SRB, read-out: In Vitro Cellular Activity IC50 LOVO. Summed up:
as §1

The target in experiment [4] is T2, cyclin D1/cdk 4 enzyme (Homo sapiens, UniProt P11802).
T2 construct: made in house; host or cells: Sf9 insect cells, recombinant baculovirus
The experiment can be described thus: CDK4 ELISA kinase assay (phospho-Rb ser 795 detection). It counts as biochemical. Put shortly:
as §2
(ELISA stands for enzyme-linked immunosorbent assay.)

Experiment [5] concerns BT474. The experiment can be described thus: Cytotoxicity assay (SRB), BT474. It counts as cell-based. Summed up:
as §1

Experiment [6] relates to HCT-116. In words: Cytotoxicity assay (SRB), HCT-116. To be noted: Homo sapiens, HCT-116, 72 h, HCT116 cells, SRB, read-out: In Vitro Cellular Activity IC50 HCT116. It counts as cell-based. Summed up: as §1
Experiment [7] addresses T3, cyclin E/CDK2 enzyme (Homo sapiens, UniProt P24941).
T3 construct: made in house; host or cells: Sf9 insect cells, recombinant baculovirus
In words: CDK2 ELISA kinase assay (phospho-Rb ser 795 detection). It counts as biochemical. Put shortly:
as §2

The mark [8] stands for this setting: In Vitro Enzyme Assays, read-out: CDK1 IC50.
Where [9] appears, read: In Vitro Enzyme Assays, 200 μM ATP, read-out: CDK4 IC50.
[10] abbreviates: Homo sapiens, BT-474, 144 h, BT474 cells, SRB, 6 days; read-out: In Vitro Cellular Activity IC50 BT474.
[11] abbreviates: In Vitro Enzyme Assays, read-out: CDK2 IC50.
[12] abbreviates: Homo sapiens, BT-474, 144 h, BT474 cells, 6 days, SRB; read-out: In Vitro Cellular Activity IC50 BT474.
Where [13] appears, read: In Vitro Enzyme Assay, cyclin B/CDK1, read-out: CDK1 IC50.
The mark [14] stands for this setting: In Vitro Enzyme Assay, cyclin D1/cdk 4, read-out: CDK4 IC50.
Setting [15] is: In Vitro Enzyme Assay, cyclin E/CDK2, read-out: CDK2 IC50.

From patent US7713994B2 (Wyeth LLC, priority 2005, dated 2010) come the findings set out here.

Structures are written as SMILES. Like-named read-outs stand apart in the source and are kept apart here.

T2 sequence (P11802 whole entry, species assumed): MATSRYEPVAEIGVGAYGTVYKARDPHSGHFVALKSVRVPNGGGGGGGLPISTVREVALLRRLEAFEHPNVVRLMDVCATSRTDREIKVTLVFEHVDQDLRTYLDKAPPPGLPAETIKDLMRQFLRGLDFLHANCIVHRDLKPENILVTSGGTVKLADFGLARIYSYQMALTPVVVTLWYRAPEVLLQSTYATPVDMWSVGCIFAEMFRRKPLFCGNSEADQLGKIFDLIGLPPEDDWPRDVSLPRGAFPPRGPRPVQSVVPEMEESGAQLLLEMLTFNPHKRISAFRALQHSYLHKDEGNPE
T2 sequence (P24385 whole entry partner, species assumed): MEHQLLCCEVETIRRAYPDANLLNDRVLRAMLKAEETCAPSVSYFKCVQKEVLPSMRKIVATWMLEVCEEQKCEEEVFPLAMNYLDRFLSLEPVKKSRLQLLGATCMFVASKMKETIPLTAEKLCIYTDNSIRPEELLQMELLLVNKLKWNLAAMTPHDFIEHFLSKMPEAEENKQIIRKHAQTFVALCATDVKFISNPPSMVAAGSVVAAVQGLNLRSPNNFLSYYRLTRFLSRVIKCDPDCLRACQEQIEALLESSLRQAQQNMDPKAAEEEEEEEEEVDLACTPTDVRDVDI
T1 sequence (P06493 whole entry): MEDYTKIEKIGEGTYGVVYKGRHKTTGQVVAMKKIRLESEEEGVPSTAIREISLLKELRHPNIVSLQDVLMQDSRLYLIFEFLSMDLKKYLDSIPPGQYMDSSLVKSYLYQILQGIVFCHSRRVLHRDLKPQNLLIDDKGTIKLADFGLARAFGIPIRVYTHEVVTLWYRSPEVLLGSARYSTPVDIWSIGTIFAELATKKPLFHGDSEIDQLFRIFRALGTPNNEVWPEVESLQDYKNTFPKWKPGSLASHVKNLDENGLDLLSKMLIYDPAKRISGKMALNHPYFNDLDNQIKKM
T1 sequence (P14635 whole entry partner): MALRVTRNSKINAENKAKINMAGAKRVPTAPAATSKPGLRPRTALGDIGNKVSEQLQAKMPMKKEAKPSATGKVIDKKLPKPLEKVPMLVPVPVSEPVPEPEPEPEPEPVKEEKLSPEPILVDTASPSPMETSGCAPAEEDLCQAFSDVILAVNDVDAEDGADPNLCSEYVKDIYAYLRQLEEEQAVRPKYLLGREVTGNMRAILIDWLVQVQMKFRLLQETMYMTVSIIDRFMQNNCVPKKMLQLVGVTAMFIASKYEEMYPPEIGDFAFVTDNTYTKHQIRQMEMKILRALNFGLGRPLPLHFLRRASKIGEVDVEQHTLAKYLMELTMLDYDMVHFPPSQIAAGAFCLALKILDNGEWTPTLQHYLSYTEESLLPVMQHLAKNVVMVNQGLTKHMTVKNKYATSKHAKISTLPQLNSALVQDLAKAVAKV

One may read the IC50 as the point on the concentration scale where inhibition reaches its midpoint. Take `C/C=C/C(=O)Nc1ccc(CN/C=C2\C(=O)NC(=O)c3ccc(I)cc32)cc1OC(=O)/C=C/C` [Example 343, 2-[(2E)-But-2-enoylamino]-5-({[(Z)-(6-iodo-1,3-dioxo-2,3-dihydroisoquinolin-4(1H)-ylidene)methyl]amino}methyl)phenyl (2E)-but-2-enoate]: the IC50 was 14 µM in experiment [1] (three days); above 50 µM in experiment [2] (setting [8]); 9.8 µM in experiment [3] (three days); 7.8 µM in experiment [4] (setting [9]); 7.7 µM in experiment [5] (setting [10]); 12 µM in experiment [6] (three days). For the same molecule, the IC50 in experiment [7] (setting [11]) was found to be 22.6 µM.

`CON(C)C(=O)C1CCN(c2ccc(N/C=C3\C(=O)NC(=O)c4ccc(I)cc43)cc2)CC1` [Example 432, 1-(4-{[(Z)-(6-Iodo-1,3-dioxo-2,3-dihydroisoquinolin-4(1H)-ylidene)methyl]amino}phenyl)-N-methoxy-N-methylpiperidine-4-carboxamide]: the half-inhibitory concentration (IC50) in experiment [1] (3 days) is 24.2 µM; in experiment [2] (setting [8]), above 50 µM; in experiment [3] (3 days) it was 8.5 µM; in experiment [4] (setting [9]), 6.5 µM; in experiment [5] (setting [12]), 9.3 µM; in experiment [6] (3 days), 11.1 µM. Also, the IC50 in experiment [7] (setting [11]) was above 50 µM.

As to `COc1ccc(CNC=C2C(=O)NC(=O)c3ccc(-c4ccccc4)cc32)cc1O` [Example 832, 4-[(3-Hydroxy-4-methoxy-benzylamino)-methylene]-6-phenyl-4H-isoquinoline-1,3-dione], the IC50 was 11.8 µM in experiment [1] (3 days); 34.7 µM in experiment [2] (setting [13]); 8.5 µM in experiment [3] (3 days); 0.01 µM in experiment [4] (setting [14]); 14.9 µM in experiment [5] (setting [12]); 9.9 µM in experiment [6] (3 days). The IC50 in experiment [7] (setting [15]) worked out at 25.9 µM.

For the molecule `CCCOc1cc(CN/C=C2\C(=O)NC(=O)c3ccc(Br)cc32)cc(O)c1OCCC` [Example 212, (4Z)-6-Bromo-4-{[(3-hydroxy-4,5-dipropoxybenzyl)amino]methylene}isoquinoline-1,3(2H,4H)-dione], the IC50 in experiment [1] (three days) was 37 µM; in experiment [2] (setting [8]), above 50 µM; in experiment [3] (three days), 30 µM; in experiment [4] (setting [9]), 0.77 µM; in experiment [5] (setting [10]) it was 47 µM; in experiment [6] (three days) it was 25 µM. Further, the IC50 in experiment [7] (setting [11]) is above 50 µM.

In the case of `CN1CCN(c2ccc(N/C=C3\C(=O)NC(=O)c4ccc(-c5ccc(C=O)cc5)cc43)cc2)CC1` [Example 115, 4-[(4Z)-4-({[4-(4-Methylpiperazin-1-yl)phenyl]amino}methylene)-1,3-dioxo-1,2,3,4-tetra-hydroisoquinolin-6-yl]benzaldehyde], the IC50 in experiment [1] (three days) is 4.7 µM; in experiment [2] (setting [8]), 8.2 µM; in experiment [3] (three days), 6.5 µM; in experiment [4] (setting [9]) it was 0.13 µM; in experiment [5] (setting [10]), 6.7 µM; in experiment [6] (three days) it was 1.6 µM. Besides, in experiment [7] (setting [11]), the IC50 was 7.7 µM.

Turning to `O=C1NC(=O)c2ccc(I)cc2/C1=C/Nc1ccc(CN2CCC[C@@H]2CO)cc1` [Example 368, D-4-{[4-(2-Hydroxymethyl-pyrrolidin-1-ylmethyl)-phenylamino]-methylene}-6-iodo-4H-isoquinoline-1,3-dione], the IC50 in experiment [1] (three days) was 1.8 µM; in experiment [2] (setting [8]), above 50 µM; in experiment [3] (three days), 3.7 µM; in experiment [4] (setting [9]), 0.51 µM; in experiment [5] (setting [10]) it was 0.5 µM; in experiment [6] (three days), 3.2 µM. For the same molecule, in experiment [7] (setting [11]), the IC50 came out at 30.3 µM.

Turning to `CN1CCCC1c1ccc(N/C=C2\C(=O)NC(=O)c3ccc(-c4ccoc4)cc32)cc1` (stereo not drawn) [Example 451, 6-Furan-3-yl-4-{[4-(1-methyl-pyrrolidin-2-yl)-phenylamino]-methylene}-4H-isoquinoline-1,3-dione], the IC50 in experiment [1] (3 days) was 1 µM; in experiment [2] (setting [8]), above 50 µM; in experiment [3] (3 days), 2.5 µM; in experiment [4] (setting [9]), 0.06 µM; in experiment [5] (setting [12]), 1 µM; in experiment [6] (3 days) it was 2.8 µM. In addition, the half-inhibitory concentration (IC50) in experiment [7] (setting [11]) was above 50 µM.

For the molecule `CCN1CCCC1c1ccc(N/C=C2\C(=O)NC(=O)c3ccc(I)cc32)cc1` (stereo not drawn) [Example 465, 4-{[4-(1-Ethyl-pyrrolidin-2-yl)-phenylamino]-methylene}-6-iodo-4H-isoquinoline-1,3-dione], the IC50 is 1.3 µM in experiment [1] (3 days); above 50 µM in experiment [2] (setting [13]); 5 µM in experiment [3] (3 days); 0.18 µM in experiment [4] (setting [14]); 3.8 µM in experiment [5] (setting [12]); 2.9 µM in experiment [6] (3 days). For the same molecule, in experiment [7] (setting [15]), the IC50 is 22 µM.

On to `O=C1NC(=O)c2ccc(N3Cc4ccccc4C3)cc2C1=CNCc1ccc(O)c(O)c1` [Example 610, 6-(1,3-Dihydro-isoindol-2-yl)-4-[(3,4-dihydroxy-benzylamino)-methylene]-4H-isoquinoline-1,3-dione], for which the IC50 in experiment [1] (3 days) is 12.2 µM; in experiment [2] (setting [13]), 3.5 µM; in experiment [3] (3 days) it was 11.1 µM; in experiment [4] (setting [14]), 0.38 µM; in experiment [5] (setting [12]), 27 µM; in experiment [6] (3 days), 9.9 µM. The IC50 in experiment [7] (setting [15]) came out at 2.5 µM.

In the case of `CCN1CCN(c2ccc(N/C=C3\C(=O)NC(=O)c4ccc(I)cc43)cc2)CC1` [Example 393, (4Z)-4-({[4-(4-Ethylpiperazin-1-yl)phenyl]amino}methylene)-6-iodoisoquinoline-1,3(2H,4H)-dione], the IC50 was 2.7 µM in experiment [1] (3 days); above 50 µM in experiment [2] (setting [8]); 6.8 µM in experiment [3] (3 days); 0.47 µM in experiment [4] (setting [9]); 5.9 µM in experiment [5] (setting [12]); 2.8 µM in experiment [6] (3 days). The IC50 in experiment [7] (setting [11]) was above 50 µM.

With `CCCOc1ccc(CN/C=C2\C(=O)NC(=O)c3ccc(-c4ccoc4)cc32)cc1O` [Example 485, (4Z)-6-(3-Furyl)-4-{[(3-hydroxy-4-propoxybenzyl)amino]methylene}isoquinoline-1,3(2H,4H)-dione], the IC50 in experiment [1] (3 days) was 1.42 µM; in experiment [2] (setting [13]), above 50 µM; in experiment [3] (3 days), 0.94 µM; in experiment [4] (setting [14]), 0.06 µM; in experiment [5] (setting [12]) it was 1.07 µM; in experiment [6] (3 days), 1.36 µM. Moreover, in experiment [7] (setting [15]), the IC50 was above 50 µM.

For `CC1(C)Oc2cc(CN/C=C3\C(=O)NC(=O)c4ccc(Br)cc43)cc(OC(=O)C3CC3)c2O1` [Example 269, 6-({[(Z)-(6-Bromo-1,3-dioxo-2,3-dihydroisoquinolin-4(1H)-ylidene)methyl]amino}methyl)-2,2-dimethyl-1,3-benzodioxol-4-yl cyclopropanecarboxylate], the IC50 is 29 µM in experiment [1] (three days); 1.9 µM in experiment [2] (setting [8]); 41 µM in experiment [3] (three days); above 50 µM in experiment [4] (setting [9]); 43 µM in experiment [5] (setting [10]); 25 µM in experiment [6] (three days). Also, in experiment [7] (setting [11]), the IC50 came to 24.7 µM.

On to `CN(C)CCCCCN/C=C1\C(=O)NC(=O)c2ccc(Br)cc21` [Example 304, (Z)-6-Bromo-4-((5-(dimethylamino)pentylamino)methylene)isoquinoline-1,3(2H,4H)-dione], for which the IC50 in experiment [1] (three days) was 7.1 µM; in experiment [2] (setting [8]), above 50 µM; in experiment [3] (three days), 6.7 µM; in experiment [4] (setting [9]), 1.5 µM; in experiment [5] (setting [10]), 16 µM; in experiment [6] (three days) it was 13 µM. In addition, the IC50 in experiment [7] (setting [11]) is 36.3 µM.

Regarding `CC1CN(C)[C@H](C)CN1c1ccc(N/C=C2\C(=O)NC(=O)c3ccc(I)cc32)cc1` (stereo in doubt) [Example 233, (4Z)-6-Iodo-4-[({4-[(2S,5R)-2,4,5-trimethylpiperazin-1-yl]phenyl}amino)methylene]-isoquinoline-1,3(2H,4H)-dione], the IC50 in experiment [1] (three days) is 1 µM; in experiment [2] (setting [8]), above 50 µM; in experiment [3] (three days), 4.4 µM; in experiment [4] (setting [9]) it was 3 µM; in experiment [5] (setting [10]), 6.9 µM; in experiment [6] (three days), 5 µM. Also, in experiment [7] (setting [11]), the IC50 is above 50 µM.

In the case of `CCC(=O)Nc1ccc(CN/C=C2\C(=O)NC(=O)c3ccc(Br)cc32)cc1` [Example 321], the IC50 in experiment [1] (three days) is 10 µM; in experiment [2] (setting [8]), above 50 µM; in experiment [3] (three days) it was 4.4 µM; in experiment [4] (setting [9]), above 50 µM; in experiment [5] (setting [10]) it was 0.84 µM; in experiment [6] (three days) it was 1.2 µM. Also, in experiment [7] (setting [11]), the IC50 turned out to be 3.6 µM.
